In patent publication US12686673B2 (Blueprint Medicines Corporation, priority 2020, dated 2026):
Counter-ions that a name gives are not always drawn.

Assays:
Format in all cases: cell-based
[1] = target: EGFR(D770_N771insSVD) expressing Ba/F3 stable cell line (Homo sapiens, UniProt P00533, DUP768-770, cells depend on it); assay: Cellular proliferation (Alamar Blue) assay, EGFR D770_N771insSVD Ba/F3; conditions: 72 hr, read-out: D770 IC50
Outline: (§1)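 Seventy-two-hour compound exposure (3-fold series, final 10–0.0005 μM) of mutant EGFR/HER2 Ba/F3 cells plated at 15,000/well in RPMI with 10% FBS. Alamar Blue added for 3 h at 37 °C as proliferation read-out.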

[2] = target: HER2 (A775_G776insYVMA) expressing Ba/F3 stable cell line (Homo sapiens, UniProt P04626, DUP772-775, cells depend on it); assay: Cellular proliferation (Alamar Blue) assay, HER2 A775_G776insYVMA Ba/F3; conditions: 72 hr, read-out: YVMA IC50
Chain of HER2 (A775_G776insYVMA) expressing Ba/F3 stable cell line (P04626 with tags, fused parts or gaps DUP772-775): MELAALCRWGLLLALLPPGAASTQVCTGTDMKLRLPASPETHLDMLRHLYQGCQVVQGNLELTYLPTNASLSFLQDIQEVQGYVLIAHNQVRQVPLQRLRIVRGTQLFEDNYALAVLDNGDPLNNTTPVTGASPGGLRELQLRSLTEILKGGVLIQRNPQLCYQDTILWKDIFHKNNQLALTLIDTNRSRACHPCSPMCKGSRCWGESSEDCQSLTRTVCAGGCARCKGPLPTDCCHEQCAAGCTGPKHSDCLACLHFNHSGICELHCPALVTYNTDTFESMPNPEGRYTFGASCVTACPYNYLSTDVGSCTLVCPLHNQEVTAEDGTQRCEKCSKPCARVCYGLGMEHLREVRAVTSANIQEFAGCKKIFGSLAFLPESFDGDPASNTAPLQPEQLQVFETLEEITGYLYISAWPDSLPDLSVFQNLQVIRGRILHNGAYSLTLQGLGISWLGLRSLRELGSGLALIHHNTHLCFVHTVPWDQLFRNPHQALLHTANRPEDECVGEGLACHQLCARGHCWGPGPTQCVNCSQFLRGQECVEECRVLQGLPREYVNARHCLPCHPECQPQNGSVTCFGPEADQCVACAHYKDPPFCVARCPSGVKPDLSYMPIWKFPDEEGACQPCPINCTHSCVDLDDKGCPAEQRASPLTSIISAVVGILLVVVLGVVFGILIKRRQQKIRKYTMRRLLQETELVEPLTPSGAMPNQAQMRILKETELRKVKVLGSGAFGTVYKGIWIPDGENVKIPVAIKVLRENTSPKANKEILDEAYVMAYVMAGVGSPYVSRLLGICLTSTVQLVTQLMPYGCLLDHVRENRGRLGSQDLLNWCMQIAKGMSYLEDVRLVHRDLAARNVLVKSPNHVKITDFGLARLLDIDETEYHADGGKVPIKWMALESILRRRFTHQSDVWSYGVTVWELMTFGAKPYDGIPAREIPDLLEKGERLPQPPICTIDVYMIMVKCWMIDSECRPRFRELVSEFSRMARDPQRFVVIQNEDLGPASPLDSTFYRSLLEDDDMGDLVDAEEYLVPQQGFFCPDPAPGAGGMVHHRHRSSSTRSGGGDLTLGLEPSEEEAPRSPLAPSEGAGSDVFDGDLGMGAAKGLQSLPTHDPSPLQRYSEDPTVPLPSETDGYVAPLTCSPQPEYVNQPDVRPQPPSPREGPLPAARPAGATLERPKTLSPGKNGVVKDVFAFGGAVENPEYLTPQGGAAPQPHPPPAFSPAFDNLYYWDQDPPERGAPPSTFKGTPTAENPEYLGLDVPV
Outline: as §1

[3] = target: EGFR (H773insNPH) expressing Ba/F3 stable cell line (Homo sapiens, UniProt P00533, DUP771-773, cells depend on it); assay: Cellular proliferation (Alamar Blue) assay, EGFR H773insNPH Ba/F3; conditions: 72 hr, read-out: NPH IC50
Chain of EGFR (H773insNPH) expressing Ba/F3 stable cell line (P00533 with tags, fused parts or gaps DUP771-773): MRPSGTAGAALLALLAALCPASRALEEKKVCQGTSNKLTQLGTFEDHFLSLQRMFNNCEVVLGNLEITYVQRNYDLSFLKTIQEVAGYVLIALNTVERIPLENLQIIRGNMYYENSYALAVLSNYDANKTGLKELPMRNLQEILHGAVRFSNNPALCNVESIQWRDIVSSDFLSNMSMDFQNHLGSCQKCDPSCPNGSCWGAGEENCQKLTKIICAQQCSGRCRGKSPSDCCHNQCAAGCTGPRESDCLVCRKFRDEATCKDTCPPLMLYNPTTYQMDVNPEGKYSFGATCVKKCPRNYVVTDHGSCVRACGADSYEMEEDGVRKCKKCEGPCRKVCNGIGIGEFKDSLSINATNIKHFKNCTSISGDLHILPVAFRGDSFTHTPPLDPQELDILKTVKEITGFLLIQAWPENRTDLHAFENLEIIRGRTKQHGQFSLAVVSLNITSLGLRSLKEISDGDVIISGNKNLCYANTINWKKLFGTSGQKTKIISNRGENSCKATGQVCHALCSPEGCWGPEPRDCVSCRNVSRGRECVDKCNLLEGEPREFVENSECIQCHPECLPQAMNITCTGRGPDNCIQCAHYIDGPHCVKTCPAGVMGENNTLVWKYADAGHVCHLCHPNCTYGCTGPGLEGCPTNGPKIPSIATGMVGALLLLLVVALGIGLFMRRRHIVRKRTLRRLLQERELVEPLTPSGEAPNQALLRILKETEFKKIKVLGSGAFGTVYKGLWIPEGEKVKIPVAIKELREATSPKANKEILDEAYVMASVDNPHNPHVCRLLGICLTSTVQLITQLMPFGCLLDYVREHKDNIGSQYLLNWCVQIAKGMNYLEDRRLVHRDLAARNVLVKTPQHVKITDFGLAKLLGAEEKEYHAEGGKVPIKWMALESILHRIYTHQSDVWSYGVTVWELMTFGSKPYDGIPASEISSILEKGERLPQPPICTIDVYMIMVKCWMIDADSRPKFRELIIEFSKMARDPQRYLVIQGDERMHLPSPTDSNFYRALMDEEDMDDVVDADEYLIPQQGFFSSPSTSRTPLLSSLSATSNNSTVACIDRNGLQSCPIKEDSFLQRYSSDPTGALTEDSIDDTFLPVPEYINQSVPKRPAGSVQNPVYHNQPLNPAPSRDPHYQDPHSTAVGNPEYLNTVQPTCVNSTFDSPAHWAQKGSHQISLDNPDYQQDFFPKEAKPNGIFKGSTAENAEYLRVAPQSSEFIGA
Procedure: • 1. EGFR(D770_N771insSVD) expressing Ba/F3 stable cell line • 2. EGFR (A767_dupASV) expressing Ba/F3 stable cell line • 3. A431 cells • 4. EGFR (H773insNPH) expressing Ba/F3 stable cell line • 5. HER2 (A775_G776insYVMA) expressing Ba/F3 stable cell line Assay Procedure: • 1. Seed cells at 5000 for A431 and 15,000 cells for Ba/F3 in 100 μL/well in complete media (for A431: DMEM with […] and for Ba/F3 cells: RPMI with 10% FBS) in 96-well tissue culture plate. Leave outer wells without cells for background measurements. Incubate at 37 degree Celsius in […] humidified incubator for 16-18 hours. • 2. Add 0.025 ml of 5× concentration compound dilution or DMSO control. Final compound concentration range is 10-0.0005 μM prepared in 3-fold serial dilutions. Incubate for 72 hr at 37 degree Celsius in […] humidified incubator. • 3. Add 0.0125 ml Alamar Blue™ reagent to each well with multi-channel pipette and tap gently on each side of the plate to mix. Incubate for 3 hours at 37 degree Celsius in 5% CO2 humidified incubator. • 4. […] Data analysis was performed using XLfit 5.5.0.5.

A431 cells = assay: Cellular proliferation (Alamar Blue) assay, A431; conditions: Homo sapiens, A-431; A431 cells, Alamar Blue, 72 hr; read-out: A431 IC50
[4] = target: EGFR (A767_dupASV) expressing Ba/F3 stable cell line (Homo sapiens, UniProt P00533, DUP767-769, cells depend on it); assay: Cellular proliferation (Alamar Blue) assay, EGFR A767_dupASV Ba/F3; conditions: 72 hr, read-out: A767 IC50
Chain of EGFR (A767_dupASV) expressing Ba/F3 stable cell line (P00533 with tags, fused parts or gaps DUP767-769): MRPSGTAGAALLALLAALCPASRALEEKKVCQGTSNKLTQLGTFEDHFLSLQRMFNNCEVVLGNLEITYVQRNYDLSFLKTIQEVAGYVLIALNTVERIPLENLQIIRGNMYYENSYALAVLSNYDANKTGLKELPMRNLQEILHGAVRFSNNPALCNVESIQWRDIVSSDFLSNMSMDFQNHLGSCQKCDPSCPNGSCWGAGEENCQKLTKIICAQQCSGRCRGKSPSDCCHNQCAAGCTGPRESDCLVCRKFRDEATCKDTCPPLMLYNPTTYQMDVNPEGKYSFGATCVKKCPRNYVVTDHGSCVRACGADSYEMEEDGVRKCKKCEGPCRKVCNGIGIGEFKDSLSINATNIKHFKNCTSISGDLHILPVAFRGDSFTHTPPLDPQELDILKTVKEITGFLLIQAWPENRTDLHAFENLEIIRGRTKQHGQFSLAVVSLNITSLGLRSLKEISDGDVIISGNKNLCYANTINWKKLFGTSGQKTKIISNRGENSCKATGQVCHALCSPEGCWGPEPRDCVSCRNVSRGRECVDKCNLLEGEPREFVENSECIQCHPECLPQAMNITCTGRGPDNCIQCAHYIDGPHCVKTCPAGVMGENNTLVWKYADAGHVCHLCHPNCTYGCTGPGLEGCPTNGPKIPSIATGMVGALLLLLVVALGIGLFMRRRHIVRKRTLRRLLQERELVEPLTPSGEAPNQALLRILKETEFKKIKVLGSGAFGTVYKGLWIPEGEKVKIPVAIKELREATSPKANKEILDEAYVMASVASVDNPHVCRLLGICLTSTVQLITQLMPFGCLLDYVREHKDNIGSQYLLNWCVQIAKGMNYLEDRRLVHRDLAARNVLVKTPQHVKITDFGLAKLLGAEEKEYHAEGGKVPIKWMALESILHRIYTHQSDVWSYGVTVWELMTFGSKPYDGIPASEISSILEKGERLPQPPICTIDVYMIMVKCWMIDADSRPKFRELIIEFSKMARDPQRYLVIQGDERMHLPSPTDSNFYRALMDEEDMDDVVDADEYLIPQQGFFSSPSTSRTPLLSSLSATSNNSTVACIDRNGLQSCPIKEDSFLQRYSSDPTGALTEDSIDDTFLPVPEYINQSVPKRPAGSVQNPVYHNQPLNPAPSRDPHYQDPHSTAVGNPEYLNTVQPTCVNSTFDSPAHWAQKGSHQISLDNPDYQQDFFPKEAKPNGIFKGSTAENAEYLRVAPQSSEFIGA
Outline: as §1

Chain of EGFR(D770_N771insSVD) expressing Ba/F3 stable cell line (P00533 with tags, fused parts or gaps DUP768-770): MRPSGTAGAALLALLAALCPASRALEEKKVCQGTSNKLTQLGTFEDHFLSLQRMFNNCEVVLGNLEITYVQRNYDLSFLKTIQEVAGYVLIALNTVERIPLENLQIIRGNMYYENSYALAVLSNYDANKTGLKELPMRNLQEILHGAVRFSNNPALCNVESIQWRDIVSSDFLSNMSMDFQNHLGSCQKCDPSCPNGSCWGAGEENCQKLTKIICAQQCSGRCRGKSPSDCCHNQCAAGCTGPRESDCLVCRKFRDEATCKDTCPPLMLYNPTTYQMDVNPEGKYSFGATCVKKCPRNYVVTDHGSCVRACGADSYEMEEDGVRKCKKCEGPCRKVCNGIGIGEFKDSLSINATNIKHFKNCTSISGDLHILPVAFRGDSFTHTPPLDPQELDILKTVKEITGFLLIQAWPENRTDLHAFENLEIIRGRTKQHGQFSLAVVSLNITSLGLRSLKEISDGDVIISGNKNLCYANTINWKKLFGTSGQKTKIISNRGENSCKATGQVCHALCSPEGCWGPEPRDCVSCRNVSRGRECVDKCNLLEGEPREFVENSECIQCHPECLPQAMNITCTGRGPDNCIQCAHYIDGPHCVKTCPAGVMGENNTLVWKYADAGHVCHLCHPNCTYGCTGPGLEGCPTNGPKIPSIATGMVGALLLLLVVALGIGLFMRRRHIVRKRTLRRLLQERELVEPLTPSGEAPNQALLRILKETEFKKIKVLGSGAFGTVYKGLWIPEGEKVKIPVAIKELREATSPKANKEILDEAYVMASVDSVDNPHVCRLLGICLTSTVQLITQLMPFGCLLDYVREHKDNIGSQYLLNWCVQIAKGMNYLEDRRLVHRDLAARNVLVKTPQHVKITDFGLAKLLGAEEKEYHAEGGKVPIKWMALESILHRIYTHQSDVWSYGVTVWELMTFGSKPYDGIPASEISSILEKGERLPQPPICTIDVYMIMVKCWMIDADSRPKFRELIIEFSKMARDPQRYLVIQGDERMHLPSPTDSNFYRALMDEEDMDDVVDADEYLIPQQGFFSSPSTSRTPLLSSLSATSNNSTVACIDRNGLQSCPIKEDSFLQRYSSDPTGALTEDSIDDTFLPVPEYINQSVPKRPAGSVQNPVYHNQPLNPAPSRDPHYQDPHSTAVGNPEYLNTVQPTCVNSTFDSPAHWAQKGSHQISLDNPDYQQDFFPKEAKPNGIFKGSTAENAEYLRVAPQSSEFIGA

Compound	GI50 [1]	GI50 [2]	GI50 [3]	IC50 (A431 cells)	GI50 [4]
C=CC(=O)Nc1ccc(F)c(Nc2nc(Nc3cnn(C)c3)ncc2-c2cncc(F)c2)c1 [Compound 69, N-(4-fluoro-3-((5-(5-fluoropyridin-3-yl)-2-((1-methyl-1H-pyrazol-4-yl)amino)pyrimidin-4-yl)amino)phenyl)acrylamide]	0.011 µM	0.019 µM	0.021 µM	0.065 µM	0.014 µM
C=CC(=O)Nc1ccc(F)c(Nc2nc(Nc3cnn(C)c3)ncc2-c2ccc(OC(F)F)nc2)c1 [Compound 70, N-(3-((5-(6-(difluoromethoxy)pyridin-3-yl)-2-((1-methyl-1H-pyrazol-4-yl)amino)pyrimidin-4-yl)amino)-4-fluorophenyl)acrylamide]	0.035 µM	0.123 µM	0.088 µM	0.077 µM	0.036 µM
C=CC(=O)Nc1ccc(F)c(Nc2nc(Nc3cnn(C)c3)ncc2-c2ccnc(OC(F)F)c2)c1 [Compound 71, N-(3-((5-(2-(difluoromethoxy)pyridin-4-yl)-2-((1-methyl-1H-pyrazol-4-yl)amino)pyrimidin-4-yl)amino)-4-fluorophenyl)acrylamide]	0.107 µM	0.226 µM	0.103 µM	0.15 µM	0.107 µM
C=CC(=O)Nc1ccc(F)c(Nc2nc(Nc3cnn(CCN(C)C)c3)ncc2-c2ccc(C(F)(F)F)cc2)c1 [Compound 72, N-(3-((2-((1-(2-(dimethylamino)ethyl)-1H-pyrazol-4-yl)amino)-5-(4-(trifluoromethyl)phenyl)pyrimidin-4-yl)amino)-4-fluorophenyl)acrylamide trifluoroacetate]	0.099 µM	0.129 µM	0.095 µM	0.08 µM	0.108 µM
C=CC(=O)Nc1cccc(Nc2nc(Nc3cnn(C)c3)ncc2-c2ccc(C(F)(F)F)nc2)c1 [Compound 73, N-(3-((2-((1-methyl-1H-pyrazol-4-yl)amino)-5-(6-(trifluoromethyl)pyridin-3-yl)pyrimidin-4-yl)amino)phenyl)acrylamide]	0.039 µM	0.113 µM	0.1 µM	0.252 µM	0.045 µM
C=CC(=O)Nc1cccc(Nc2nc(Nc3cnn(C)c3)ncc2-c2ccc(F)nc2)c1 [Compound 74, N-(3-((5-(6-fluoropyridin-3-yl)-2-((1-methyl-1H-pyrazol-4-yl)amino)pyrimidin-4-yl)amino)phenyl)acrylamide]	0.036 µM	0.07 µM	0.043 µM	0.236 µM	0.038 µM
C=CC(=O)Nc1ccc(F)c(Nc2nc(Nc3cnn(C)c3)ncc2-c2ccc(Br)cc2)c1 [Compound 75, N-(3-((5-(4-bromophenyl)-2-((1-methyl-1H-pyrazol-4-yl)amino)pyrimidin-4-yl)amino)-4-fluorophenyl)acrylamide trifluoroacetate]	0.035 µM	0.1 µM	0.043 µM	0.037 µM	0.074 µM
C=CC(=O)Nc1ccc(F)c(Nc2nc(Nc3cnn(CCO)c3)ncc2-c2ccc(C(F)(F)F)cc2)c1 [Compound 78, N-(4-fluoro-3-((2-((1-(2-hydroxyethyl)-1H-pyrazol-4-yl)amino)-5-(4-(trifluoromethyl)phenyl)pyrimidin-4-yl)amino)phenyl)acrylamide]	0.084 µM	0.266 µM	0.053 µM	> 10 µM	0.093 µM
C=CC(=O)Nc1ccc(F)c(Nc2nc(Nc3cnn(C)c3)ncc2-c2ccnc(F)c2)c1 [Compound 82, N-(4-fluoro-3-((5-(2-fluoropyridin-4-yl)-2-((1-methyl-1H-pyrazol-4-yl)amino)pyrimidin-4-yl)amino)phenyl)acrylamide]	0.038 µM	0.226 µM	0.057 µM	0.59 µM	0.103 µM
